Two molecules from US20220249528A1 (CELGENE CORPORATION, priority 2019, published 2022) can be followed below.

Molecules are shown by their SMILES. Peptide text beside a SMILES is read from it. * marks the point of attachment. Cbz = O=C(OCc1ccccc1)*; CH2F = FC*

For test [1], the system named is ATF3 and SCD mRNA in MV4-11 cells. The test can be described thus: Real-time PCR validation of ATF3 and SCD expression. Format: cell-based. Particulars: for ATF3 expression: FIG. 14C; for SCD expression: 24 hours, FIG. 14D. As for the experimental part:
At this time, cells were recovered and RNA was extracted using Qiagen RNeasy kit according to manufacturer's instructions. Reverse transcription was performed using SuperScript VILO cDNA synthesis kit. Validated Taqman probes and Taqman Fast Advanced Master Mix was used with Viia 7 Real-Time PCR System (Invitrogen/ThermoFisher Scientific, Waltham, Mass.) to quantify transcripts of ATF3, SCD, and 18S mRNA.
On the technique in general: In qPCR the cycle at which signal appears reflects the starting amount.

Another test deals with MV4-11 xenograft model. The test can be described thus: Disseminated AML xenograft survival study. In kind it is in vivo, mice. Particulars: 5-azacytidine LEED regimen 1 mg/kg qd×5×3, alone or with venetoclax or midostaurin 100 mg/kg qd×21; vehicle 29.5. The method, then: LEED models oral administration of AZA, while HELD models intravenous or subcutaneous administration of AZA.
The animals were fed ad libitum water (reverse osmosis, 1 ppm Cl), and NIH 31 Modified and Irradiated Lab Diet® consisting of 18.0% crude protein, 5.0% crude fat, and 5.0% crude fiber. […] (68-72° F.) and 40-60% humidity.
On each day of dosing, an appropriate amount of gilteritinib was dissolved in 0.5% methylcellulose in DI water to yield a dosing solution at 0.4 mg/mL. Each week, an appropriate amount of venetoclax was dissolved in 10% ethanol:30% PEG400:60% phosal 50 propylene glycol to yield a dosing solution at 10 mg/mL. […]
Animals were monitored individually for an endpoint of moribundity due to progression of the leukemia. […] The time to endpoint (TTE), in days, was recorded for each mouse that died of its disease or was euthanized due to extensive tumor progression. […] The median TTE value was calculated for each group. The median TTE of treated mice was expressed as a percentage of the median TTE of the control mice (% T/C), and the increase in life span (ILS) was calculated as: ILS=% T/C−100%, where T=median TTE treated, and C=median TTE control. […]
Animals were weighed daily on Days 1-5, then twice per week until the completion of the study. […] Group mean body weight loss also was monitored as per protocol. […] Survival was analyzed by the Kaplan-Meier method, based on TTE values.

For a further test, the system named is MCL-1 in OCI-AML2 cells. The test can be described thus: Western blot of MCL-1 degradation. In kind it is cell-based. Particulars: OCI-AML2, FIG. 12D. The method, then:
(§1) Lysates were quantified using a bicinchoninic acid (BCA) kit (Piece/Thermo Fisher, Waltham, Mass.). 20 to 30 μg protein was resolved on a 4-12% SDS-PAGE gel, transferred to PVDF membranes (80V/90 minute by wet-transfer), and blocked with Oddysey TBS blocking buffer for 1 hour and then probed with appropriate primary antibodies overnight at 4° C. using dilution as recommended by manufacturer. Membranes were washed three times for a total of 30 minutes and then incubated with secondary antibodies at room temperature in the dark for 1 hour. After another three washes, Odyssey infrared imaging system and companion software (LI-COR biosciences, Lincoln, Nebr., USA) were used to scan immunoblot membranes and to quantify band intensity according to the manufacturer's instructions. The ratio of proteins of interest to loading control in treated samples was normalized to the corresponding ratio in untreated cells.
(In general: A western blot detects proteins with antibodies after separation by electrophoresis.)

The subject of another test is MCL-1 in KG1a cells. The test can be described thus: Western blot of MCL-1 degradation. Format: cell-based. The note with it: FIG. 12A. The method, then:
as §1

For a further test, the system named is MCL-1 in THP-1 cells. The test can be described thus: Western blot of MCL-1 degradation. In kind it is cell-based. The note with it: THP-1, by 24 hours. As for the experimental part: as §1
For a further test, the system named is 22 AML cell lines. The test can be described thus: Cell viability and 5-azacytidine-venetoclax synergy in AML cell line panel. Format: cell-based. Particulars: venetoclax-resistant lines Kasumi-1, Kasumi-2 and NOMO-1.
Another test deals with MV4-11 cells. The test is described as follows: RNASeq analysis, differential expression and KEGG pathways. Format: cell-based. The source says: After treatment, cells were recovered, washed once in PBS, and flash frozen as cell pellets. Cell pellets were sent to Canopy Biosciences for RNA extraction and library preparation and sequencing. RNA was extracted using the Qiagen RNeasy Mini Kit according to manufacturer's instructions. A modified protocol was used to preserve miRNA species. […] MCL1 RNA levels in other cell lines were quantified by RNASeq using standard methods.
Libraries were multiplexed and sequenced using Illumina HiSeq. All gene counts were then imported into the R/Bioconductor package EdgeR and TMM normalization size factors were calculated to adjust for samples for differences in library size. Ribosomal genes and genes not expressed in the smallest group size minus one samples greater than one count-per-million were excluded from further analysis. Differential expression analysis was then performed to analyze for differences between conditions and the results were filtered for only those genes with Benjamini-Hochberg false-discovery rate adjusted p-values less than or equal to 0.05. Global perturbations in known Gene Ontology (GO) terms and KEGG pathways were detected using the R/Bioconductor package GAGE to test for changes in expression of the reported log 2 fold-changes reported by Limma in each term versus the background log 2 fold-changes of all genes found outside the respective term. The R/Bioconductor package heatmap and Pathview was used to display heatmaps or annotated KEGG graphs across groups of samples for each GO term or KEGG pathway (respectively) with a Benjamini-Hochberg false-discovery rate adjusted p-value less than or equal to 0.05. To find differentially expressed genes, the raw counts were variance stabilized with the R/Bioconductor package DESeq2.

A further test relates to MCL-1 in MV4-11 cells. The test is described as follows: Western blot of MCL-1 degradation. The note with it: 20 μM Z-VAD-FMK 1 hour before 5-azacytidine for 16 hours, FIG. 13B. In kind it is cell-based. The method, then:
as §1, with “cells. Antibodies used for immunoblotting were purchased from the following sources: BCL-2 (sc-7382), MCL1-(sc-819) from Santa Cruz Biotechnology (Dallas, Tex., USA, Bim (2819), caspase-3 (9664) from Cell Signaling Technology; beta-Actin (A2228) from Sigma-Aldrich; DNMTI (ab188453) from AbCam; IRDye 680 goat anti-rabbit and IRDye 800 goat anti-mouse secondary antibodies (#925-68073 and #925-32212) were purchased from Li-COR Biosciences (Lincoln, Nebr.). […]” for “cells.”

Where [2] appears, read: 1 μM 5-azacytidine vs PBS, 24 h.

Turning to `Nc1ncn([C@@H]2O[C@H](CO)[C@@H](O)[C@H]2O)c(=O)n1` [5-azacytidine, 4-amino−1-B-D-ribofuranosyl-1,3,5-triazin-2(1H)-one], the ATF3 expression result is “not sufficient to induce ATF3 expression” in test [1] (0.3 μM, 24 or 48 hours); “increased in a time- and concentration-dependent manner” in test [1] (0.3, 1 or 3 μM, 24 and 48 hours). Besides, the SCD expression entry in test [1] (3 μM) is given as “decreased rapidly within 24 hours”; in test [1] (low concentrations), “not affected”. For the same molecule, the median survival in the test with MV4-11 xenograft model is 35. In the test with MCL-1 in OCI-AML2 cells, the MCL-1 degradation entry is listed as “did not lead to any degradation of MCL-1”. For the same molecule, the “start of MCL-1 degradation after treatment” value in the test with MCL-1 in KG1a cells stood at 6 h. In addition, in the test with MCL-1 in THP-1 cells, the “extent of MCL-1 degradation” value is given as “incomplete degradation by 24 hours”. Besides, the “effect of co-treatment on venetoclax resistance” value in the test on 22 AML cell lines is listed as “reversal of venetoclax resistance”. In addition, the “Mean logFC, KEGG pathway Metabolic pathways” value in the test on MV4-11 cells (setting [2]) is listed as −5.29. The “Mean logFC, KEGG pathway Taste transduction” value with MV4-11 cells (setting [2]) is listed as 2.44. The ATF3 expression increase entry in the test on MV4-11 cells (RNAseq, 48 hours after 5-azacytidine treatment) is on record as “two-fold”.

Turning to `COC(=O)C[C@H](NC(=O)[C@H](C)NC(=O)[C@@H](NC(=O)OCc1ccccc1)C(C)C)C(=O)CF` [Z-VAD-FMK] (Cbz-Val-Ala-Asp(OMe)-CH2F), the “effect on MCL-1 degradation by 5-azacytidine” value with MCL-1 in MV4-11 cells was “partially ablated”.
